From ChEMBL document CHEMBL5113373, “Tryptophan derived natural marine alkaloids and synthetic derivatives as promising antimicrobial agents” (Eur J Med Chem, 2021)
Values after ≈ are worked out from the molar mass of the structure shown.

What was measured:
Candida albicans [1] = assay: Antifungal activity against Candida albicans assessed as fungal growth inhibition; format: functional, organism-based
Cryptococcus neoformans = assay: Antifungal activity against Cryptococcus neoformans assessed as fungal growth inhibition; format: functional, organism-based
Pyricularia oryzae = assay: Antifungal activity against Pyricularia oryzae assessed as fungal growth inhibition incubated for 16 hrs by inverted microscopy; format: functional
Vibrio natriegens = assay: Antimicrobial activity against Vibrio natriegens ATCC 14048 assessed as microbial growth inhibition incubated for 48 hrs by spectrophotometry; format: functional
Aspergillus niger = assay: Antifungal activity against Aspergillus niger assessed as fungal growth inhibition; format: functional, organism-based
Micrococcus luteus = assay: Antibacterial activity against Micrococcus luteus assessed as bacterial growth inhibition; format: functional, organism-based
Mycolicibacterium phlei = assay: Antibacterial activity against Mycobacterium phlei assessed as bacterial growth inhibition; format: functional, organism-based
Saccharomyces cerevisiae = assay: Antifungal activity against Saccharomyces cerevisiae assessed as fungal growth inhibition; format: functional, organism-based
Staphylococcus aureus [2] = assay: Antimicrobial activity against methicillin-resistant Staphylococcus aureus assessed as microbial growth inhibition by broth microdilution method; format: functional
Escherichia coli [3] = assay: Antimicrobial activity against Escherichia coli assessed as microbial growth inhibition by microdilution method; format: functional
Candida albicans [4] = assay: Antimicrobial activity against Candida albicans assessed as microbial growth inhibition by microdilution method; format: functional
[5] = test system: Trichophyton mentagrophytes; assay: Antifungal activity against Trichophyton mentagrophytes assessed as fungal growth inhibition; format: functional, organism-based
Staphylococcus aureus [6] = assay: Antibacterial activity against Staphylococcus aureus ATCC 16339 assessed as bacterial growth inhibition incubated for 24 hrs by broth micro dilution method; format: functional
Klebsiella pneumoniae = assay: Antibacterial activity against Klebsiella pneumoniae ATCC 14578 assessed as bacterial growth inhibition incubated for 24 hrs by broth micro dilution method; format: functional
Acinetobacter baumannii [7] = assay: Antibacterial activity against Acinetobacter baumannii ATCC 19606 assessed as bacterial growth inhibition incubated for 24 hrs by broth micro dilution method; format: functional
Acinetobacter baumannii [8] = assay: Antibacterial activity against Acinetobacter baumannii ATCC 15122 assessed as bacterial growth inhibition incubated for 24 hrs by broth micro dilution method; format: functional
Fusarium oxysporum = assay: Antifungal activity against Fusarium oxysporum Momordicae assessed as fungal growth inhibition incubated for 3 days by broth micro dilution method; format: functional; conditions: 72 h, time 3 day
Candida albicans [9] = assay: Antifungal activity against Candida albicans ATCC 2091 assessed as fungal growth inhibition incubated for 24 hrs by agar diffusion method; format: functional
Staphylococcus aureus [10] = assay: Antibacterial activity against Staphylococcus aureus ATCC 6538 assessed as bacterial growth inhibition incubated for 24 hrs by agar diffusion method; format: functional
Pseudomonas aeruginosa = assay: Antibacterial activity against Pseudomonas aeruginosa ATCC 9027 assessed as bacterial growth inhibition incubated for 24 hrs by agar diffusion method; format: functional
Hepatitis C virus = assay: Antiviral activity against HCV J8CC infected in human Huh7.5 cells assessed as viral growth inhibition incubated for 48 hrs by light microscopy; format: functional, organism-based, Hepacivirus hominis; conditions: Huh7.5, 48 h
Bacillus subtilis = assay: Antibacterial activity against Bacillus subtilis assessed as bacterial growth inhibition; format: functional, organism-based
Escherichia coli [11] = assay: Antibacterial activity against Escherichia coli assessed as bacterial growth inhibition; format: functional
Staphylococcus aureus [12] = assay: Antibacterial activity against Staphylococcus aureus assessed as bacterial growth inhibition; format: functional, organism-based
[13] = Inhibition of Methicillin-resistant Staphylococcus aureus pyruvate kinase assessed as measuring absorbance of NADH coupled to L-LDH using phospho enol pyruvate in presence of ADP by spectrophotometry
[14] = test system: Mycobacterium tuberculosis; assay: Antibacterial activity against […] assessed as bacterial growth inhibition; format: functional
Staphylococcus aureus [15] = assay: Antimicrobial activity against Staphylococcus aureus ATCC 25923 assessed as zone of inhibition incubated for 24 hrs by disc diffusion method; format: functional
Candida albicans [16] = assay: Antimicrobial activity against Candida albicans ATCC 14053 assessed as zone of inhibition incubated for 24 hrs by disc diffusion method; format: functional
Escherichia coli [17] = assay: Antibiofilm activity against Escherichia coli K12 ER2718 assessed as inhibition of biofilm formation incubated for 24 hrs by crystal violet method; format: functional, organism-based; conditions: K12 ER2718, 24 h
Staphylococcus aureus [18] = assay: Antibiofilm activity against Staphylococcus aureus ATCC 29213 assessed as inhibition of biofilm formation incubated for 24 hrs by crystal violet method; format: functional, organism-based; conditions: ATCC 29213, 24 h
Acinetobacter baumannii [19] = assay: Antibiofilm activity against Acinetobacter baumannii ATCC 19606 assessed as inhibition of biofilm formation at 100 uM incubated for 24 hrs by crystal violet method relative to control; format: functional; parameters: scale not given: the % may be the effect or the level left

SMILES: CSc1c(-c2c(-c3c[nH]c4ccc(O)cc34)c(=O)n3c4ccc(O)cc4c4cc(C(=O)O)nc2c43)[n+](C)cn1C
- IC50 (Candida albicans [1]): 14.5 µM
- IC50 (Cryptococcus neoformans): 14.5 µM

SMILES: CC(C)=CCn1cc(CC2NC(=O)C(C(C)C)NC2=O)c2ccccc21 (stereo unspecified)
- MIC (Pyricularia oryzae): 0.36 µM (≈ 0.127 µg/mL)

SMILES: C/N=C1\NC(Cc2c[nH]c3cc(Br)c(Br)cc23)C(=O)N1C (stereo unspecified)
- MIC (Vibrio natriegens): 2.4 µM (≈ 0.994 µg/mL)

SMILES: CC(C)CC(=O)Nc1c(O)c(C(C[N+](C)(C)C)c2c[nH]c3cc(Br)ccc23)c2ccnc3c2c1NC=C3 (stereo unspecified)
- IC50 (Candida albicans [1]): 14.2 µM

SMILES: C[N+](C)(C)CC(c1c[nH]c2cc(Br)ccc12)c1c2ccnc3c2c(c2nc(CS(=O)(=O)[O-])oc12)NC=C3 (stereo unspecified)
- MIC (Aspergillus niger): 27.5 µM (≈ 16 µg/mL)

SMILES: C=CC(C)(C)c1c(CCNC)c2ccc(Br)cc2n1CC=C(C)C
- IC50 (Micrococcus luteus): 5.9 µM
- IC50 (Mycolicibacterium phlei): 7.7 µM
- IC50 (Saccharomyces cerevisiae): 17.9 µM

SMILES: Cc1cncc(Cc2c[nH]c3ccccc23)n1
- MIC (Staphylococcus aureus [2]): 53.7 µM (≈ 12 µg/mL)
- MIC (Escherichia coli [3]): 35.8 µM
- MIC (Candida albicans [4]): 62.7 µM

SMILES: C=CC(C)(C)c1c(CCNC)c2ccccc2n1CC=C(C)C
- IC50 (Micrococcus luteus): 22.6 µM
- IC50 (Mycolicibacterium phlei): 7.7 µM

SMILES: O=C1CN=C(c2c[nH]c3ccc(O)cc23)c2c(O)ccc3[nH]cc1c23
- IC50 [5]: 48.3 µM

SMILES: O=C1N[C@]2(CO)c3[nH]c4ccccc4c3C[C@@H]1n1c2nc2ccccc2c1=O
- MIC (Staphylococcus aureus [6]): 16.8 µM (≈ 6.26 µg/mL)
- MIC (Klebsiella pneumoniae): 16.8 µM (≈ 6.26 µg/mL)
- MIC (Acinetobacter baumannii [7]): 16.8 µM (≈ 6.26 µg/mL)
- MIC (Acinetobacter baumannii [8]): 16.8 µM (≈ 6.26 µg/mL)
- MIC (Fusarium oxysporum): 4 µM (≈ 1.49 µg/mL)

SMILES: O=C(O)c1c(-c2c[nH]c3cc(O)ccc23)ncc2[nH]c3ccc(O)cc3c12
- diameter of the inhibition zone (DIZ) (Candida albicans [9]): 9 mm
- diameter of the inhibition zone (DIZ) (Staphylococcus aureus [10]): 10 mm
- diameter of the inhibition zone (DIZ) (Pseudomonas aeruginosa): 7 mm

SMILES: CC(C)[C@@H]1NC(=O)[C@@H](C[C@@]2(O)c3ccccc3N3C(=O)C(C)(C)N[C@@H]32)n2c1nc1ccccc1c2=O
- EC50 (Hepatitis C virus): 129 µM

SMILES: O=C1Nc2ccccc2[C@@]1(O)Cc1cncc(Cc2c[nH]c3ccccc23)n1
- MIC (Staphylococcus aureus [2]): 32.4 µM (≈ 12 µg/mL)
- MIC (Escherichia coli [3]): 27 µM
- MIC (Candida albicans [4]): 32.4 µM

SMILES: CSc1c(-c2c(-c3c[nH]c4ccc(O)cc34)c(=O)n3c4ccc(O)cc4c4ccnc2c43)[n+](C)cn1C
- IC50 (Candida albicans [1]): 7.9 µM
- IC50 (Cryptococcus neoformans): 7.9 µM
- MIC [5]: 31.5 µM

SMILES: CO[C@@H]1c2c[nH]c3ccc(O)c(c23)C(c2c[nH]c3ccc(O)cc23)=N[C@@H]1C(C)=O
- MIC (Bacillus subtilis): 41.1 µM (≈ 16 µg/mL)
- MIC (Escherichia coli [11]): 41.1 µM (≈ 16 µg/mL)

SMILES: C[N+](C)(C)CC(c1c[nH]c2cc(Br)ccc12)c1c(O)c(O)c2c3c(nccc13)C=CN2 (stereo unspecified)
- IC50 (Candida albicans [1]): 0.5 µM
- IC50 (Cryptococcus neoformans): 0.5 µM
- IC50 [5]: 0.5 µM
- IC50 (Staphylococcus aureus [12]): 4.2 µM
- IC50 (Bacillus subtilis): 4.2 µM
- IC50 (Micrococcus luteus): 4.2 µM

SMILES: O=C1NC[C@@H](c2c[nH]c3cc(Br)ccc23)N[C@H]1c1c[nH]c2cc(Br)ccc12 (relative stereo) [CIS-3,4-DIHYDROHAMACANTHIN B]
- MIC (Staphylococcus aureus [2]): 0.016 µM (≈ 0.00781 µg/mL)
- IC50 [13]: 5.1 µM

SMILES: O=C1N[C@@H](Cc2c[nH]c3ccccc23)C(=O)N2CCC[C@@H]12 [BREVIANAMIDE F]
- MIC [14]: 44.1 µM (≈ 12.5 µg/mL)
- diameter of the inhibition zone (DIZ) (Staphylococcus aureus [15]): 19 mm
- diameter of the inhibition zone (DIZ) (Candida albicans [16]): 25 mm

SMILES: C=CC(C)(C)c1[nH]c2cc(Br)ccc2c1CCNC [DESFORMYLFLUSTRABROMINE]
- IC50 (Escherichia coli [17]): 174 µM
- IC50 (Staphylococcus aureus [18]): 70 µM

SMILES: C=CC(C)(C)[C@@]12CCN(C)C1=Nc1cc(Br)ccc12 [FLUSTRAMINE C]
- Activity (Acinetobacter baumannii [19]): 30%

SMILES: C[C@@H]1NC(=O)[C@@H](Cc2c[nH]c3ccccc23)n2c1nc1ccccc1c2=O [FUMIQUINAZOLINE F]
- MIC (Staphylococcus aureus [12]): 382 µM (≈ 137 µg/mL)
- MIC (Micrococcus luteus): 276 µM (≈ 99 µg/mL)

SMILES: Brc1ccc2c(-c3c[nH]c(-c4c[nH]c5cc(Br)ccc45)n3)c[nH]c2c1 [NORTOPSENTIN A]
- IC50 (Candida albicans [1]): 6.8 µM

SMILES: Brc1ccc2c(-c3nc(-c4c[nH]c5ccccc45)c[nH]3)c[nH]c2c1 [NORTOPSENTIN B]
- IC50 (Candida albicans [1]): 6.8 µM

SMILES: Brc1ccc2c(-c3c[nH]c(-c4c[nH]c5ccccc45)n3)c[nH]c2c1 [NORTOPSENTIN C]
- IC50 (Candida albicans [1]): 6.8 µM
